Results reported in US10342806B2, “Hormone treatment for age-related hearing loss-presbycusis” (priority 2014, dated 2019).

Experiments:
NKCC1 = conditions: Jiang et al. 2003, cited from earlier work
SGK1 and Nedd4-2 = SGK1 and Nedd4-2 phosphorylation in HT-29 cells, Western blot; assay type: cell-based, human; conditions: ALD 1 μM, GSK 650394 50 μM, 9 h
Experimental: FIG. 25 is a blot showing ALD modulation of NKCC1 via the ALD-SGK1-Nedd4-2 pathway. HT-29 cells were treated with ALD (1 μM) or ALD (1 μM)+GSK650394 (50 μM) for 9 h. Cell lysates were analyzed by Western blot as indicated. Blots are representative of 3 independent experiments. Left: controls. Middle: ALD increases the phosphorylations of SGK1 and Nedd4-2, concomitantly there is an increased induction of NKCC1 protein expression (1st row).
(§1) Western blot. Cell lysates were prepared in RIPA buffer (Pierce 89901; Thermo Scientific, Waltham, Mass.) with protease inhibitor cocktail (78430; Thermo Scientific). Cell samples were homogenized in buffer, followed by centrifugation at 2,000 rpm for 10 min at 4° C. Supernatants were subjected to Western blot analysis by loading 200 μg of protein per lane, after the protein concentrations were determined by Bradford protein assay. Proteins were fractionated by SDS-PAGE gel electrophoresis and transferred to a PVDF blotting membrane (Whatman, Piscataway, N.J.). The blot was incubated with primary antibodies against β-actin and Na—K-2C1 cotransport protein (Cell Signaling, Danvers Mass.); primary antibodies for p-SGK1, SGK1, pNedd4-2, and Nedd4-2 were utilized (concentration 1:1,000). The secondary antibody was horseradish peroxidaseconjugated goat anti-rabbit IgG (1:2,000; Cell Signaling).

[1] = Tail-cuff plethysmography of blood pressure; assay type: in vivo, mouse; conditions: 0.0016 mg/day pellet, measured at 2 and 4 months
Experimental: (§2) FIG. 27(A) is graph showing the tail-cuff plethysmography of blood pressure for ALD treatments of 60 days and 120 days, compared to middle-age control mice. Diastolic blood pressures were measured for middle-aged (20-21 mon) CBA/CaJ mice and middle-age ALD treated (0.0016 mg/day continuous release through 120 days, one pellet for 60 days and subsequently a second pellet for 60 days) mice, each group, n=5. Pressures were taken at 60 and 120 days and compared to the middle-age control animals. Mean±SD for each group.
as §2, with “27(B)” for “27(A)”, “is a” for “is”, “Systolic” for “Diastolic”
During treatment, blood pressures were measured for the mice at 2 and 4 months after start of treatment.

NKCC1 ubiquitination = experiment: Immunoprecipitation (autoubiquitination assay) of NKCC1 in HT-29 cells; assay type: cell-based, human; conditions: MG132 20 μM 2 h, then ALD 1 μM and/or GSK 650394 50 μM for 24 h
Experimental: Immunoprecipitation (autoubiquitination assay) and western blot analysis. An autoubiquitination assay was followed (Garg, et al., Effect of the Na—K-2Cl cotransporter NKCC1 on systemic blood pressure and smooth muscle tone. Am J Physiol Heart Circ Physiol 292: H2100-H2105, 2007). Cell extracts were prepared in a modified radioimmunoprecipitation assay 1 (RIPA) buffer, containing the following (in mM): 50 Tris·HCl at pH 7.4, 150 NaCl, 1 EDTA, and 1 dithiothreitol with 1% Nonidet P-40, 0.1% SDS; in a 1:200-diluted protease inhibitor cocktail (Sigma), containing the following (in mM): 1 PMSF, 10 NEM, and 0.1 iodoacetamide Immunoprecipitations were accomplished using a rabbit polyclonal anti-NKCC1 antibody (Cell Signaling). Antibody was bound to lysate with endogenous NKCC1, and then beads were added. Bound proteins were eluted in 1× SDS sample buffer, fractionated on an SDS-polyacrylamide gel, transferred onto a […] membrane (GE Healthcare, Piscataway, N.J.), and immunoblotted with anti-ubiquitin antibody visualized using enhanced chemiluminescence detection reagents (Pears, Shelton Conn.) according to the manufacturer's instructions.
Immunoblotting with anti-ubiquitin antibody was performed as described above.
ALD decreases the endogenous ubiquitination of NKCC1 and inhibition of SGK1 activation blocks this downregulation. […]

LC3-I, -II, and LAMP-2 = experiment: Lysosome pathway markers in HT-29 cells, Western blot; assay type: cell-based, human; conditions: ALD 1 μM, MG-132 20 μM, CQ 50 μM, 9 h
Experimental: FIG. 23(A) is a blot and showing ubiquitination, but not the lysosome pathway, is involved in the regulation of NKCC1 by ALD. To exclude the possibility that depletion of free ubiquitin by the prolonged MG-132 treatment triggered nonspecific inhibition of lysosome degradation of NKCC1 and investigate whether ALD is involved in a lysosome pathway, a parallel experiment with chloroquine (CQ) was performed. Here, the positive marks (+) indicate application of ALD (1 μM), MG132 (20 μM), CQ (50 μM), ALD+CQ, and MG132+CQ for 9 h. An autophagosome marker, autophagy-related gene 8 named as light chain 3 (LC3), and the lysosome-associated membrane protein 2 (LAMP-2) were used was indicators of lysosome pathway activation (phagocytic activity) under treatment with CQ.
as §1
Ubiquitination, but not the lysosome pathway, is involved in NKCC1 induction by ALD. A parallel experiment was performed with chloroquine (CQ), a lysosome inhibitor, to exclude the possibility that prolonged MG-132 treatment depleted free ubiquitin by nonspecific inhibition of lysosome degradation of NKCC1 and to confirm whether or not ALD is involved in a lysosome pathway. […]

C[C@]12CCC(=O)C=C1CC[C@@H]1[C@@H]2[C@@H](O)C[C@]2(C=O)[C@@H](C(=O)CO)CC[C@@H]12 [ALD, aldosterone]
NKCC1 transcripts, real-time polymerase chain reaction (NKCC1): did not elevate NKCC1 transcripts
increase in NKCC1 activity (NKCC1; adrenalectomized rats, multiday treatment): 63%
phosphorylation of SGK1 and Nedd4-2 (SGK1 and Nedd4-2): increases the phosphorylation of SGK1 and Nedd4-2
diastolic or systolic blood pressure [1]: neither aging nor the hormone treatment appeared to affect either diastolic or systolic blood pressure
endogenous ubiquitinated NKCC1 (NKCC1 ubiquitination): significantly reduced
lysosome pathway markers LC3II and LAMP-2 expression levels (LC3-I, -II, and LAMP-2): without increasing lysosome pathway markers
